In patent US7893279B2, “Cyclohexanecarboxylic acid compound” (Daiichi Pharmaceutical Co., Ltd., priority 2003, dated 2011):
Converted amounts (≈) assume the structure as drawn.

Assays:
VLA-4 = VLA-4 (Homo sapiens, UniProt P05556+P13612); experiment: VLA-4 inhibitory activity; assay type: binding; details: compared with compound (a)
[1] = Moisture adsorption/desorption (microbalance, automatic vapor adsorption apparatus); assay type: physicochemical; details: for Moisture adsorption/desorption: change in weight / stability: crystals about 20 mg, relative humidities 10 to 90% RH
Experimental: Compound (1), compound (a), and salts of compound (a) prepared in Example 1, Referential Example 1, and Comparative Example 1, respectively, were evaluated in terms of moisture adsorption/desorption. Specifically, the amount of water adsorbed on or desorbed from each compound was determined through subjecting crystals (about 20 mg) of each compound to a microbalance (automatic vapor adsorption apparatus) and measuring time-elapsed change in weight at relative humidities (RH) ranging from 10 to 90%.

[2] = Solubility to water (37° C.); assay type: physicochemical; details: for Water-solubility (in words) / solubility: 37° C., water; for solubility: Table 1

Chain of VLA-4 (P13612 34-1032): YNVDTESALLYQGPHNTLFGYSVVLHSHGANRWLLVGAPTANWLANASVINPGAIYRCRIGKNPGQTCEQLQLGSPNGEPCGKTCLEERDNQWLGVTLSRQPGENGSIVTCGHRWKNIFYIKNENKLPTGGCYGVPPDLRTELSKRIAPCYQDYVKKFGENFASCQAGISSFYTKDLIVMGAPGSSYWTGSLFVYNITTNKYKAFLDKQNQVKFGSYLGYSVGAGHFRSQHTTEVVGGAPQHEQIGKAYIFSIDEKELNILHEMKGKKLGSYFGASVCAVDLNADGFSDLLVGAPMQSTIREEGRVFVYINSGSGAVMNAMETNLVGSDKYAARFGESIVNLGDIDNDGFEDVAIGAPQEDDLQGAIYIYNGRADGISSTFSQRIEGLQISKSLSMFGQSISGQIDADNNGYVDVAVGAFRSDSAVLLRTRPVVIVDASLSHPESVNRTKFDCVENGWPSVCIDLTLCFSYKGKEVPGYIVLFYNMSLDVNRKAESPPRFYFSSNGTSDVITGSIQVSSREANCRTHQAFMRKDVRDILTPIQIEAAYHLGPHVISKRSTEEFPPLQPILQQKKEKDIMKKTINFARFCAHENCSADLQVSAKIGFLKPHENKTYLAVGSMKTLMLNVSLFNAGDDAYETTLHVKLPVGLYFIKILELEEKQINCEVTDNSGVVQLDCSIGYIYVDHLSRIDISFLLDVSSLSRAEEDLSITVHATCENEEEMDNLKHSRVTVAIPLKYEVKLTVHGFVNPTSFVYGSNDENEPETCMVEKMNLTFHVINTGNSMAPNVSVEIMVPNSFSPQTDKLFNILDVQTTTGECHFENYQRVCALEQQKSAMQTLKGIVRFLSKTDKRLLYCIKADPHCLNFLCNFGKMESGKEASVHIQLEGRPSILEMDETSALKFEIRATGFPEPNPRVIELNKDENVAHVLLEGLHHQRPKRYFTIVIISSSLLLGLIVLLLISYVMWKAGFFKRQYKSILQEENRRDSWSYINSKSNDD
Chain of VLA-4 (P05556 21-798): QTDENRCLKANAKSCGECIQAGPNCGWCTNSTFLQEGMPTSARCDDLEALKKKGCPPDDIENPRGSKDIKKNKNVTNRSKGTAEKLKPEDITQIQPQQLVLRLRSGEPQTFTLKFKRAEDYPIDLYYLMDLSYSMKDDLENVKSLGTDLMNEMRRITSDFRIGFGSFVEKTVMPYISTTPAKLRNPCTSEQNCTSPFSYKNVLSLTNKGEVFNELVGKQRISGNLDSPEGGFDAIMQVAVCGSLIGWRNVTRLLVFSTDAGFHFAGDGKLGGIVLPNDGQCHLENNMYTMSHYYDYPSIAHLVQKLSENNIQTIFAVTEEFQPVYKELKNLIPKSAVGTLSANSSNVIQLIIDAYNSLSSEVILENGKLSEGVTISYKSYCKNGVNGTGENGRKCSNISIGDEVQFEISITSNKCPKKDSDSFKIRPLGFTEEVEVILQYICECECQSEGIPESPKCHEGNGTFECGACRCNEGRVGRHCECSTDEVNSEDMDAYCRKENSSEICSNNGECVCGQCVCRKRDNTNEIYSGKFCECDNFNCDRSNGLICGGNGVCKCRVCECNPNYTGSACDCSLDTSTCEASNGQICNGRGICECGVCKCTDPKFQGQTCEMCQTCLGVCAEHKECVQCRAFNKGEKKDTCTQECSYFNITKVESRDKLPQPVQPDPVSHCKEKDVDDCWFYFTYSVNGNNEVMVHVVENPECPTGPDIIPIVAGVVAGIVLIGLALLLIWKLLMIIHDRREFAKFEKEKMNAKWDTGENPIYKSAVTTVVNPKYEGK

Row | VLA-4 inhibitory activity (VLA-4) | Water-solubility (in words) [2] | solubility [2] [µg/mL] | Storage stability (moisture adsorption/desorption property) of crystal forms ([1]; Type-I and Type-II crystals of compound (1), FIG. 5) | Water Solubility ([2]; crystal forms of compound (1), manner similar to Test Example 2, Table 3) [µg/mL] | Structure (SMILES) | Moisture adsorption/desorption: change in weight / stability [1]
1 | comparable to that of compound (a) | very high water-solubility | > 1000 |  |  | CO[C@H]1C[C@@H](CO[C@H]2CC[C@H](C(=O)[O-])CC2)N(C(=O)Cc2cc(Cl)c(NC(=O)c3cn(C)c4ccccc34)cc2Cl)C1.[Na+] [Compound (1), sodium trans-4-[1-[2,5-dichloro-4-[(1-methyl-1H-3-indolylcarbonyl)amino]phenylacetyl]-(4S)-methoxy-(2S)-pyrrolidinylmethoxy]cyclohexanecarboxylate pentahydrate] | no change in weight under typical humidity conditions
2 |  | considerably low water-solubility | 0.653 (≈ 1.06 µM) |  |  | CO[C@H]1C[C@@H](CO[C@H]2CC[C@H](C(=O)O)CC2)N(C(=O)Cc2cc(Cl)c(NC(=O)c3cn(C)c4ccccc34)cc2Cl)C1 [Compound (a), trans-4-[1-[2,5-dichloro-4-[(1-methyl-1H-3-indolylcarbonyl)amino]phenylacetyl]-(4S)-methoxy-(2S)-pyrrolidinylmethoxy]cyclohexanecarboxylic acid, reference compound] | change in weight at 40 to 60% RH
3 |  |  |  | good storage stability | >1000 | CO[C@H]1C[C@@H](CO[C@H]2CC[C@H](C(=O)[O-])CC2)N(C(=O)Cc2cc(Cl)c(NC(=O)c3cn(C)c4ccccc34)cc2Cl)C1.[Na+] [Type-I] | 
